Laboratory results as given in patent publication US6033823A, “Mutated penicillin G acylase genes” (priority 1994, dated 2000).
Residue numbers refer to the chain shown, from its start.

Legend:
[1] = target: T1, Alcaligenes faecalis Penicillin G acylase, wild type (α subunit SEQ ID NO:27, β subunit SEQ ID NO:32) (Alcaligenes faecalis, UniProt O34142); assay: Deacylation kinetics and phenylacetic acid product inhibition, wild type PenG acylase; format: biochemical; details: wt AF; from progress curves of NIPAB deacylation, 25° C., 0.1 M NaH2PO4.H2O buffer pH 7.5; read-out: Ki Phenylacetic acid (inhibition constant, dissociation constant)
T1 construct: alpha 202 aa, beta 551 aa; likely recombinant, E. coli host
T1 sequence (O34142 27-228): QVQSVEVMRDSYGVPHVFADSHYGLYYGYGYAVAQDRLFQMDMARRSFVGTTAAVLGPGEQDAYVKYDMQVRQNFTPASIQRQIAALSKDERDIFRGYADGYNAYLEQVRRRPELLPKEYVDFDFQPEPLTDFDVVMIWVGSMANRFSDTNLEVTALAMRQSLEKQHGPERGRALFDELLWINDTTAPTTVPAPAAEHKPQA
T1 sequence (O34142 266-816): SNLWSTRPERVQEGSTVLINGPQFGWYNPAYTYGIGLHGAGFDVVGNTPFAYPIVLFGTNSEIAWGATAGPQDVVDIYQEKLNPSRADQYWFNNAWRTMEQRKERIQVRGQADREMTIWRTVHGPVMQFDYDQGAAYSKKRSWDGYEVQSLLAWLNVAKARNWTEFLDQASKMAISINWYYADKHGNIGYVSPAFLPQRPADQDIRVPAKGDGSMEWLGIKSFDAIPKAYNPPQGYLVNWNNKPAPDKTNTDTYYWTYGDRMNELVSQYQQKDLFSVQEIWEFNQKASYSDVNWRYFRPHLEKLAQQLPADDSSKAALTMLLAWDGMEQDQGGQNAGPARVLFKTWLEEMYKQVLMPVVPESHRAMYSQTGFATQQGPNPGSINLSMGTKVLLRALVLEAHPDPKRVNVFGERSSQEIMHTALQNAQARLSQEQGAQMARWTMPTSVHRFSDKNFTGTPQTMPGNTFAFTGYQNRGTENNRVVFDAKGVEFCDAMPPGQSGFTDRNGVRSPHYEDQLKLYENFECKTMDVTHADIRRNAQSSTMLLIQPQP
Method: In order to determine enzymatic activity the acylases were incubated with substrate at room temperature in buffered solution. In case β-lactamase impurity was expected to be present in the enzyme preparations, 1.0 mM -lactamase inhibitor 6-bromo-penicillanic acid was added to the assay. The reactions were stopped by adding an excess PMSF. For some mutants which were less sensitive to PMSF inhibition, the reactions were stopped by adding 0.5 M HCl or 0.5 M acetic acid until the pH was between 3 and 4. When reactions were subsequently analysed by HPLC, the reactions were stopped by dilution with the correponding elution solvent (see table 1). […]
The composition of the reaction mixtures was determined by high-performanceliquid chromatography (HPLC)(table 1). Concentrations were determined by using standards of known concentration.
In a continuous assay Penicillin G acylase was assayed spectro-fotometrically with the chromogenic substrate NIPAB [6-nitro-3-phenylacetamido-benzoic acid]. The liberation of 3-amino-6-nitrobenzoic acid was monitored by measuring the extinction at 405 nm in a Kontron 610 kinetic spectrofotometer. […]
Initial rate measurements were performed with excess substrate over the enzyme. Catalytic parameters were derived from least-squares fitting of the measured initial rates plotted for various substrate concentrations according to the Michaelis-Menten equation. […]

[2] = target: T2, Alcaligenes faecalis Penicillin G acylase mutant B:L56A (Alcaligenes faecalis, UniProt O34142, L321A); assay: NIPAB kinetics and phenylacetic acid product inhibition, mutant B:L56A; format: biochemical; details: from progress curves of NIPAB deacylation, 25° C., 0.1 M NaH2PO4.H2O buffer pH 7.5, read-out: Ki Phenylacetic acid (inhibition constant, dissociation constant)
T2 construct: alpha 202 aa, beta 551 aa; recombinant, E. coli host
T2 sequence (O34142 27-228): T1 sequence (O34142 27-228)
T2 sequence (O34142 266-816 L321A): T1 sequence (O34142 266-816) with L56A
Method: In a continuous assay Penicillin G acylase was assayed spectro-fotometrically with the chromogenic substrate NIPAB [6-nitro-3-phenylacetamido-benzoic acid]. The liberation of 3-amino-6-nitrobenzoic acid was monitored by measuring the extinction at 405 nm in a Kontron 610 kinetic spectrofotometer. Measuring maximal rate, the assays were performed at 25° C. using 20 mM NaH2 PO4.H2 O at pH 7.5 with 20 mM NIPAB and 100 μl enzym solution (at a proper dilution). Initial rate measurements were performed with varying concentration of NIPAB.
Initial rate measurements were performed with excess substrate over the enzyme. Catalytic parameters were derived from least-squares fitting of the measured initial rates plotted for various substrate concentrations according to the Michaelis-Menten equation.
The complete conversion of NIPAB was followed as a funtion of time at 20, 50 and 100 μM NIPAB by following the increase in absorbtion at 405 nm. Products of this conversion are phenylacetic acid and 3-amino-6-nitrobenzoic acid. The conversion was performed at 25° C. in 0.1 M NaH2 PO4.H2 O buffer pH 7.5. The progress curves of the deacylation of NIPAB could be fitted very well when product inhibition by phenylacetic acid was taken into account. […]

SMILES: O=C(O)Cc1ccccc1 [phenylacetic acid]
- Ki [1]: 11 µM
- Ki [2]: 59 µM
